In paper PMC6595003, “Insights into real-time chemical processes in a calcium sensor protein-directed dynamic library” (Nature Communications, 2019):

Legend:
dNCS-1 = target: T1, dNCS-1 (Drosophila melanogaster, UniProt Q9VWX8); test: Tryptophan emission fluorescence of dNCS-1 at increasing ligand concentrations (apparent Kd); type: binding; conditions: for Kd: Ca2+ loaded dNCS-1 0.8 µM, pH 7.9, 5% DMSO, 5 °C, fit to 1:1 stoichiometry, three independent experiments
T1 construct: made in house; host or cells: E. coli
T1 sequence (Q9VWX8 1-187): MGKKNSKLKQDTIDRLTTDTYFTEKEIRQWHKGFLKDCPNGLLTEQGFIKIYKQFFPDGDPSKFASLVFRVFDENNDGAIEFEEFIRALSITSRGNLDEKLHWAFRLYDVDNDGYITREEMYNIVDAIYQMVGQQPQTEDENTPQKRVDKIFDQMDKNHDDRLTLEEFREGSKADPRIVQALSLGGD
Description: Fluorescence-based experiments with 3a–3e were carried out to estimate their affinity to dNCS-1.
Mean ± SD from three independent experiments. The curves represent the least squares fitting of the experimental data to a 1:1 stoichiometry. To properly compare the different curves, intensities were normalized and represented. […] Input represents 1/10 cell lysates before IP. Quantifications of each lane from four experiments are shown below the blots. Bars represent percentage of NCS-1/ Ric8a binding (mean ± SD) normalized to DMSO. […] Mean ± SD from three independent experiments. […] Then, the percentage of picnotic bodies over the total nuclei was analyzed. Mean ± SD from three independent experiments. Paired two-tailed Student’s test ***P˂0.001; **P < 0.01; *P < 0.05. Source data are provided as a Source Data file. IP immunoprecipitation, WB western blot […]
the length of the pass light (L) is 1cm (see Supplementary Table 3 and Supplementary […]
Fluorescence emission experiments. Tryptophan emission fluorescence of dNCS-1 […]
affinity and calculate the apparent dissociation constant, Kd. Fluorescence measurements were performed by Jobin Yvon Floromax4 spectrofluorimeter equipped […]
5% DMSO at 5 °C. The excitation wavelength was fixed at 295 nm, and the emission spectra range were collected over 300-400 nm.
Then, three independent experiments were performed
Fluorescence intensities were normalized and represented as (I0 − I)/I 0. I stands for the observed fluorescence emission at 345 nm (fluorescence maximum), and I0 is the observed fluorescence emission of the protein itself without any small molecule. The apparent dissociation constant was obtained using a least squares algorithm to fit the experimental data to a 1:1 stoichiometry model.6 The fitting was performed with KaleidaGraph Data Analysis Program. […]
Protein expression and purification. Drosophila and human NCS-1 were over-expressed in E. coli and subsequently purified to homogeneity as previously described.9

[1] = Parallel artificial membrane permeability assay (PAMPA-BBB); type: in vitro ADME; conditions: for Pe (10-6 cm s-1) Experimental 1 / Pe (10-6 cm s-1) Experimental 2 / Pe (10-6 cm s-1) Experimental 3: source data
Text: The PAMPA methodology is a high-throughput technique to predict passive permeability through biological membranes that employs a brain lipid porcine as membrane. […]
From this equation and following the pattern established in the literature for BBB permeation prediction2 we could classify compounds as CNS + when they present a permeability > 4.50 x 10-6 cm s-1. Source data are provided as a Source Data file. […]
Parallel artificial membrane permeability assays. Prediction of the brain penetration was evaluated using a parallel artificial membrane permeability assay (PAMPA).4 Ten commercial drugs, phosphate buffer saline solution at pH 7.4 (PBS). DMSO and dodecane were purchased from Sigma, Across organics, Aldrich and Fluka. The porcine […]
plate was a 96-well filtrate plate (Multiscreen® IP Sterile Plate PDVF membrane, pore […]
MAIPS4510) and the acceptor plate was an indented 96-well plate (Multiscreen®, catalog no. MAMCS9610) both from Millipore. Filter PDVF […]
membrane units (diameter 30 mm, pore size 0.45 µm) from Symta were used to filter the samples. A 96-well plate UV reader (Thermoscientific, Multiskan spectrum) was used for the UV measurements.

[2] = pig, PAMPA-BBB, pH 7.4, 5% DMSO, 2 h 30 min at 25 °C, mean ± SD, read-out: Pe, in vitro permeability
[3] = PAMPA-BBB, pH 7.4, 5% DMSO, 2 h 30 min at 25 °C, mean ± SD

SMILES | Kd (dNCS-1) | Normalized Fluorescence I0-I/I0 (dNCS-1; ligand 3.2 μM) | Normalized Fluorescence I0-I/I0 (dNCS-1; ligand 6.4 μM) | Normalized Fluorescence I0-I/I0 (dNCS-1; ligand 8 μM) | Normalized Fluorescence I0-I/I0 (dNCS-1; ligand 16 μM) | Normalized Fluorescence I0-I/I0 (dNCS-1; ligand 24 μM) | Normalized Fluorescence I0-I/I0 (dNCS-1; ligand 32 μM) | Normalized Fluorescence I0-I/I0 (dNCS-1; ligand 48 μM) | Normalized Fluorescence I0-I/I0 (dNCS-1; ligand 64 μM) | Normalized Fluorescence I0-I/I0 (dNCS-1; ligand 80 μM) | Normalized Fluorescence I0-I/I0 (dNCS-1; ligand 96 μM) | Papp at 2.5 h, 0.04 mg/mL [1, 2] | Pe (10-6 cm s-1) Experimental 1 [1] | Pe (10-6 cm s-1) Experimental 2 [1] | Pe (10-6 cm s-1) Experimental 3 [1] | Pe, in vitro permeability [1, 3] | Papp at 2.5 h [1, 2] | Prediction (penetration in the CNS) ([1]; Supplementary Table 5)
O=C(Cc1c[nH]c2ccccc12)NN=Cc1ccc([N+](=O)[O-])c(O)c1 (mixture of isomers) [3b] | 43 ± 6 µM | 0.064 | 0.094 | 0.164 | 0.334 | 0.447 | 0.600 | 0.701 | 0.814 | 0.849 | 0.900 | 12.9 ± 0.8 ×10⁻⁶ cm/s | 12.9 10-6 cm s-1 | 12.33 10-6 cm s-1 | 13.52 10-6 cm s-1 | – | – | –
O=C(NN=Cc1ccc([N+](=O)[O-])c(O)c1)C(O)c1ccccc1 (mixture of isomers) [3d] | 61 ± 9 µM | 0.123 | 0.086 | 0.187 | 0.280 | 0.401 | 0.424 | 0.549 | 0.700 | 0.766 | 0.802 | – | 2.5 10-6 cm s-1 | 2.04 10-6 cm s-1 | 2.94 10-6 cm s-1 | did not show good permeability values | 2.5 ± 0.6 ×10⁻⁶ cm/s | –
O=C(N/N=C/c1ccc([N+](=O)[O-])c(O)c1)c1ccco1 [3a] | 32 ± 2 µM | 0.131 | 0.215 | 0.262 | 0.405 | 0.544 | 0.668 | 0.810 | 0.878 | 0.924 | 0.955 | – | 1.7 10-6 cm s-1 | 1.25 10-6 cm s-1 | 2.25 10-6 cm s-1 | did not show good permeability values | 1.7 ± 0.7 ×10⁻⁶ cm/s | CNS -
